Results reported in US8389236B2, “Assay” (Otago Innovation Limited, priority 2005, dated 2013).
“And” between values parts separate entries of the source, which are not always exact repeats. Equal entries are not always repeated.

Legend:
[1] = test system: HIV-1 gag/pol −1 frameshift signal sequence (HIV-1 frameshift construct); assay: Stably transfected dual fluorescent reporter recoding assay in Flp-In CV1 cells (−1 frame construct); type: cell-based; conditions: for DsRed/EGFP ratio / Percentage decrease in ratio / Minus 1 Frameshift Construct EGFP signal, Average / Minus 1 Frameshift Construct DsRed signal, Average: 120 hours; for DsRed/EGFP ratio / Percentage decrease in ratio: stable Flp-In CV1 cells; for DsRed/EGFP ratio: not normalised to Null 0, expressed as a percentage; for Percentage decrease in ratio: vs no drug; for Minus 1 Frameshift Construct EGFP signal, Average: 485 excitation 515 emission; for Minus 1 Frameshift Construct DsRed signal, Average: 535 excitation 590 emission
Description: The translational recoding construct described above was excised via Hind III and Not I restrictions sites and ligated into a Flp-In™ pcDNA5/FRT expression vector (Invitrogen Life Technologies) before being stably transformed into Flp-In™ CV1 cells (Invitrogen Life Technologies) according to the manufacturer's instructions.
Flp-In CV1 cells (CV1 cells), as described in Example 2, transfected with the −1 frame construct, and untransfected CV1 cells were grown, harvested, trypsinised, washed and diluted to 1×10^5 cells/ml all under standard conditions.
Cells were then seeded in 96 well plates under standard conditions. The plates were then incubated for 120 hours at 37° C.
(§1) The cells were washed 3 times with Phosphate Buffered Saline (PBS) to remove any traces of culture medium. 100 ul of Passive Lysis buffer (Promega) was added. The cells were frozen. The frozen cells were then thawed and fluorescence intensity was read in the Tecan Genios Pro plate reader.
Plate reader setting were as follows:
Filters 485 excitation, 515 emission
Filters 535 excitation, 590 emission
As a Null 0 frameshift construct was not used in this experiment ratios of the DsRed to EGFP signal were calculated to take into account the decrease in the EGFP signal with increasing drug concentrations.
The calculation was similar to example 3, with the counts averaged, the control cell counts removed before working out the ratio of the DsRed signal to the EGFP signal. Normalisation using a Null 0 frame construct could not be performed, with the results below being expressed as a percentage. The calculation was a follows: [[DsRed signal: HIV-1 frameshift construct]/[EGFP signal: HIV-1 frameshift construct]]

[2] = test system: HIV-1 gag/pol −1 frameshift signal sequence (HIV-1 frameshift construct); assay: Dual fluorescent reporter (EGFP/DsRed) recoding assay in transiently transfected COS-7 cells, with Null 0 control construct; type: cell-based; conditions: for Minus 1 Frameshift Construct EGFP signal, Average / Null 0 Frameshift Construct EGFP signal, Average: 485 excitation 520-P emission; for Minus 1 Frameshift Construct DsRed signal, Average / Null 0 Frameshift Construct DsRed signal, Average: 525 excitation 600LP emission; for Frameshift: DsRed 525 excitation/600LP emission
Description: Mammalian COS-7 cells were grown, harvested, trypsinised, washed and diluted to 1×10^5 cells/ml all under standard conditions.
The diluted cells were then split into two equal portions. One portion was transiently transfected with the recoding construct, and other with the Null 0 frame control construct. Transient transfection was performed using 2 μL of FuGENE® 6 transfection reagent (Roche) and 500 ng of DNA for every mL of cells, in accordance with the manufacturing instructions.
Transfected cells were seeded in 24 well plates under standard conditions. Cycloheximide was added in triplicate at 50 nM and the plates were then incubated for 48 hours at 37° C.
as §1, with “and transferred to a 96 well plate, and” for “and”, “BMG PolarStar” for “Tecan Genios Pro”
Plate reader settings were as follows:
Filters 485 excitation, 520-P emission
Filters 544 excitation, 590 emission
[[DsRed signal: HIV-1 frameshift construct]/[EGFP signal: HIV-1 frameshift construct]]/[[DsRed signal: Null 0 frameshift construct]/[EGFP signal: Null 0 frameshift construct]]
The diluted cells were then split into two equal portions. One portion was transfected, as described in Example 3, with the recoding construct, and other with the Null 0 frame control construct.
Cells were then seeded in 24 well plates under standard conditions. Anisomycin was added in triplicate at 50 nM and the plates were then incubated for 48 hours at 37° C.
The cells were prepared as described in examples 3 and 4.
DsRed signal at 525 excitation, 600LP emission
EGFP signal at 485 excitation, 520-P emission
Frameshift figures, shown in Table 5, were calculated using the formula shown in Example 3 using data from Tables 1, 2, 3 and 4.
Transfected cells were prepared as described in Example 5, and treated with 0 nM (no drug) 100 nM, 200 nM, 300 nM, 400 nM and 500 nM concentrations of anisomycin.
Incubation, plate reader setting and readings were as described in Example 5.
For the anisomycin titrations, the frameshift figures, shown in Table 10, were calculated using the formula shown in Example 3 using data from Tables 6, 7, 8 and 9.

[3] = 50 nM, 48 hours, 485 excitation, 520-P emission
[4] = 50 nM, 48 hours, 544 excitation, 590 emission
[5] = 100 nM, COS-7, 525/600LP filters, vs no drugs

C[C@@H]1C[C@@H]([C@H](O)CC2CC(=O)NC(=O)C2)C(=O)[C@@H](C)C1 [Cycloheximide]
DsRed/EGFP ratio ([1]; 50 nM): 7.38%
Percentage decrease in ratio ([1]; 50 nM): 4.11%
Minus 1 Frameshift Construct EGFP signal, Average ([1]; 50 nM): 11313
Minus 1 Frameshift Construct DsRed signal, Average ([1]; 50 nM): 1220
DsRed/EGFP ratio ([1]; 100 nM): 7.28%
Percentage decrease in ratio ([1]; 100 nM): 5.39%
Minus 1 Frameshift Construct EGFP signal, Average ([1]; 100 nM): 11262
Minus 1 Frameshift Construct DsRed signal, Average ([1]; 100 nM): 1210
DsRed/EGFP ratio ([1]; 500 nM): 5.47%
Percentage decrease in ratio ([1]; 500 nM): 28.91%
Minus 1 Frameshift Construct EGFP signal, Average ([1]; 500 nM): 8638
Minus 1 Frameshift Construct DsRed signal, Average ([1]; 500 nM): 948
DsRed/EGFP ratio ([1]; 1000 nM): 3.25%
Percentage decrease in ratio ([1]; 1000 nM): 57.82%
Minus 1 Frameshift Construct EGFP signal, Average ([1]; 1000 nM): 7308
Minus 1 Frameshift Construct DsRed signal, Average ([1]; 1000 nM): 818
DsRed/EGFP ratio ([1]; 2000 nM): −2.94%
Percentage decrease in ratio ([1]; 2000 nM): 138.27%
Minus 1 Frameshift Construct EGFP signal, Average ([1]; 2000 nM): 6285
Minus 1 Frameshift Construct DsRed signal, Average ([1]; 2000 nM): 688
% decrease in ratio over concentration range ([1]; range between 50 nM and 2000 nM, stable cells, result in words): dose responsive effect
decrease in frameshift from the original (no drug) value ([2]; 50 nM, 48 hours, COS-7, 544/590 filters): 5%
absolute change frameshift efficiency ([2]; 50 nM, 48 hours, COS-7, vs no drug control, 544/590 filters): 0.29%
EGFP signal, HIV-1 frameshift construct, average [2, 3]: 24268 RFU
EGFP signal, HIV-1 frameshift construct, average minus control [2, 3]: 23858 RFU
EGFP signal, Null 0 frameshift construct, average [2, 3]: 42054 RFU
EGFP signal, Null 0 frameshift construct, average minus control [2, 3]: 41644 RFU
DsRed signal, HIV-1 frameshift construct, average [2, 4]: 1447 RFU
DsRed signal, HIV-1 frameshift construct, average minus control [2, 4]: 1342 RFU
DsRed signal, Null 0 frameshift construct, average [2, 4]: 43596 RFU
DsRed signal, Null 0 frameshift construct, average minus control [2, 4]: 43491 RFU
Minus 1 Frameshift Construct EGFP signal, Average ([2]; 100 nM): 23068
Null 0 Frameshift Construct EGFP signal, Average ([2]; 100 nM): 41181
Minus 1 Frameshift Construct DsRed signal, Average ([2]; 100 nM): 2384
Null 0 Frameshift Construct DsRed signal, Average ([2]; 100 nM): 39126
Percentage decrease in frameshift [2, 5]: 2.7% and 2.71%
absolute change in frameshift efficiency [2, 5]: 0.23%
Frameshift ([2]; 100 nM, COS-7): 8.25%
Minus 1 Frameshift Construct EGFP signal, Average ([2]; 200 nM): 25793
Null 0 Frameshift Construct EGFP signal, Average ([2]; 200 nM): 42120
Minus 1 Frameshift Construct DsRed signal, Average ([2]; 200 nM): 2567
Null 0 Frameshift Construct DsRed signal, Average ([2]; 200 nM): 40152
Percentage decrease in frameshift ([2]; 200 nM, COS-7, 525/600LP filters, vs no drugs): 4.51%
Frameshift ([2]; 200 nM, COS-7): 8.10%
Minus 1 Frameshift Construct EGFP signal, Average ([2]; 300 nM): 27197
Null 0 Frameshift Construct EGFP signal, Average ([2]; 300 nM): 46595
Minus 1 Frameshift Construct DsRed signal, Average ([2]; 300 nM): 2674
Null 0 Frameshift Construct DsRed signal, Average ([2]; 300 nM): 45168
Percentage decrease in frameshift ([2]; 300 nM, COS-7, 525/600LP filters, vs no drugs): 6.17%
Frameshift ([2]; 300 nM, COS-7): 7.96%
Minus 1 Frameshift Construct EGFP signal, Average ([2]; 400 nM): 27613
Null 0 Frameshift Construct EGFP signal, Average ([2]; 400 nM): 42950
Minus 1 Frameshift Construct DsRed signal, Average ([2]; 400 nM): 2704
Null 0 Frameshift Construct DsRed signal, Average ([2]; 400 nM): 41311
Percentage decrease in frameshift ([2]; 400 nM, COS-7, 525/600LP filters, vs no drugs): 5.52%
Frameshift ([2]; 400 nM, COS-7): 8.01%
Minus 1 Frameshift Construct EGFP signal, Average ([2]; 500 nM): 28615
Null 0 Frameshift Construct EGFP signal, Average ([2]; 500 nM): 42742
Minus 1 Frameshift Construct DsRed signal, Average ([2]; 500 nM): 2790
Null 0 Frameshift Construct DsRed signal, Average ([2]; 500 nM): 41338
Percentage decrease in frameshift ([2]; 500 nM, COS-7, 525/600LP filters, vs no drugs): 5.66%
Frameshift ([2]; 500 nM, COS-7): 8.00%
effect on −1 frameshifting ([2]; result in words): antagonists to −1 frameshifting
